Laboratory results reported in patent EP0912571B1, “NAPHTHYRIDINES WHICH AFFECT IL-4 AND G-CSF” (SCHERING CORPORATION, priority 1996, dated 1997).

Columns and labels:
BALB/cJ mice = assay: In vivo acceleration of recovery from neutropenia in cyclophosphamide-treated mice (flow cytometry of granulocytes); conditions: for granulocyte recovery: return to normal numbers: 40 mg/kg daily from day 1 after single sublethal dose of CY on day 0
Procedure: To test the activity of compound AA in enhancing peripheral neutrophil numbers and accelerating recovery of the neutrophil compartment, BALB/cJ mice were rendered neutropenic by treatment with a single sublethal dose of CY on day 0. Mice were then treated daily, starting on day 1, with 40 mg/kg compound AA or vehicle (carboxymethyl cellulose CMC) and sacrificed on days 3, 5, 6, 8 or 10 and granulocyte populations in peripheral blood and spleen analyzed by flow cytometry. Granulocytes were detected using the RB6-8C5 antibody, specific for granulocytes (see Hestdal et al 1991 J. Immunol. 147:22. which is hereby incorporated by reference) and the Mac-1 antibody, specific for myeloid cells (see Springer et al JEur. J. lmmunol. 9: 301). […] Compound AA administration accelerated granulocyte recovery in both blood and spleen, with a return to normal numbers by day 5 in blood and day 4 in spleen. These granulocytes were confirmed to be exclusively segmented neutrophils by cytological examination. Neutrophil recovery was delayed by 1-2 days in CY-dosed mice given vehicle, compared to compound AA - treated animals. No changes in percentage or number of monocytes were observed.

[1] = system: mice made neutropenic with CY; assay: Comparison of compound AA with rhG-CSF in the CY neutropenia model; type: in vivo; conditions: compound AA at 40mg/kg daily, granulocyte levels in peripheral blood on day 5
Procedure: Exogeneous G-CSF administration is now standard therapy for patients undergoing a neutropenic episode In order to compare compound AA treatment with G-CSF therapy in the CY model described above, we administered either compound AA or recombinant human G-CSF daily to mice made neutropenic with CY. Granulocyte levels in peripheral blood were determined on day 5.

G-CSF mRNA = assay: Steady-state G-CSF mRNA levels in stimulated cell cultures (reverse transcription, PCR); type: cell-based, human
human G-CSF production = assay: In vitro enhancement of G-CSF production in PHA-stimulated PBMNC's (ELISA of culture supernatant); type: cell-based; conditions: PBMNC's with 5µg/ml PHA
Procedure: (§1) In order to determine the effect of compound AA on human G-CSF production, human peripheral blood mononuclear cells (PBMNC's) were prepared (as described in Ficoll-Paque: For in vitro isolation of lymphocytes (booklet) 1983 Pharmacia, Uppsala Sweden; which is hereby incorporated by reference) and cultured as described (in Oster et al, 1989 Blood 73:64. which is hereby incorporated by reference) with 5µg/ml phytohemagglutin (PHA) in the presence of varying concentrations of compound AA or vehicle (0.1% dimethylsulfoxide, DMSO). After 40 hours, culture supernatant was collected and cytokine levels measured by ELISA (R&D Systems, Minneapolis MN). Alternatively mRNA was prepared by standard protocols from these cells after 24 hour incubation, reverse-transcribed and subjected to polymerase chain reaction (PCR)

[2] = system: bone marrow steady-state G-CSF mRNA; assay: Endogenous G-CSF in CY-dosed mice: bone marrow steady-state G-CSF mRNA by PCR; type: in vivo; conditions: CY-dosed mice administered compound AA
Procedure: Acceleration of neutrophil recovery by compound AA may occur by stimulating neutrophil development at the level of the bone marrow (see Demetri et al 1991 Blood 78: 2791).To confirm that compound AA was acting in vivo by enhancing endogenous G-CSF production, bone marrow steady-state G-CSF mRNA levels were determined by PCR.

[3] = system: TNFα, TNFβ, IL-1α, IL-1 β, IL-3, IL-6, IL-8, or GM-CSF; assay: Specificity: production of other cytokines in the PBMNC culture (ELISA); type: cell-based, human; conditions: PHA-stimulated PBMNC's
Procedure: as §1
This effect was specific for G-CSF, since no change in the production of TNFα, TNFβ, IL-1α, IL-1 β, IL-3, IL-6, IL-8, or GM-CSF was observed.

[4] = 40 mg/kg daily, CY-treated mice

SMILES: CC(=O)Nc1ccc(S(=O)(=O)Nc2nc(-c3ncccc3C)cc3cccnc23)cc1 [compound AA]
- delay of neutrophil recovery in CY-dosed mice given vehicle, compared to compound AA-treated animals (BALB/cJ mice; 40 mg/kg daily): 1 to 2 days
- changes in percentage or number of monocytes (BALB/cJ mice; [4]): No changes
- gross toxicity or abnormalities (BALB/cJ mice; [4]): No evidence of gross toxicity or abnormalities
- granulocyte recovery: return to normal numbers (BALB/cJ mice; blood): ≤ 5 days
- granulocyte recovery: return to normal numbers (BALB/cJ mice; spleen): ≤ 4 days
- ability to enhance peripheral blood neutrophil numbers versus 250mg/kg rhG-CSF [1]: comparable
- ability to enhance peripheral blood neutrophil numbers versus 50-125mg/kg rhG-CSF [1]: greater
- Steady-state G-CSF mRNA levels (G-CSF mRNA; LPS-stimulated monocytes): increased
- Steady-state G-CSF mRNA levels (G-CSF mRNA; PHA-stimulated PBMNC's): increased
- EC50 (human G-CSF production; Homo sapiens, G-CSF levels, 40 hours, read-out: effective concentration50 (EC50)): 15 µM
- increase in G-CSF levels (human G-CSF production; supernatant after 40 hours, ELISA): 4-5 fold
- bone marrow G-CSF mRNA levels [2]: enhanced
- change in the production of TNFα, TNFβ, IL-1α, IL-1 β, IL-3, IL-6, IL-8, or GM-CSF [3]: no change
